Numbered stars: 1 amine (or outer) side, 2 acyl side, 3 side chain; on linkers, the order of the positions; unused ones are H or OH. Bridge positions count the residues as written; N and C are the ends. Square brackets hold non-standard residues; d marks the D form. Side chains are listed from the residue outwards. Peptide text beside a SMILES is read from it. * marks the point of attachment. Phenylacetyl(4-Me) = Cc1ccc(CC(=O)*)cc1; γGlu = O=C(O)[C@H](CCC(=O)[*:2])N[*:1]; NH(CH2)8CO = O=C(CCCCCCCCN[*:1])[*:2]; Diglycolyl = O=C(COCC(=O)[*:2])[*:1]; Glutaryl = O=C(CCCC(=O)[*:2])[*:1]; 1Naphthoyl = O=C(c1cccc2ccccc12)*; X4 = O=C(c1cc2ccccc2[nH]1)*; Decanoyl = CCCCCCCCCC(=O)*; Isobutyryl = CC(C)C(=O)*; Orn = NCCC[C@H](N)C(=O)O; Dab = NCC[C@H](N)C(=O)O; Dap = NC[C@H](N)C(=O)O; Ahp = NCCCCCCC(=O)O; Butyryl = CCCC(=O)*; Ahx = NCCCCCC(=O)O; Ava = NCCCCC(=O)O; GABA = NCCCC(=O)O

This assay relates to MCP-1. In words: In vitro chemotaxis (trans-well migration) v MCP-1. In kind it is cell-based, human. How it is done: To determine whether an agent inhibits a chemokine-induced activity, such as macrophage recruitment, varying amounts of the agent are mixed with cells in the presence of a known chemoattractant. For example, a range of known concentrations of an agent, e.g., a chemokine peptide, is incubated with a defined number (e.g., 10^4-10^6) of human THP-1 monocyte cells in individual wells of the top compartment of a trans-well plate. Chemokine, at a concentration known to cause significant migration of THP-1 cells in the trans-well migration assay, is placed in the lower compartment of a trans-well plate. Cells are then incubated at 37° C. for a period sufficient to allow migration, e.g., 4 hours. After incubation, the cells are gently removed from the top of the filter with a pipette, 20 μl of 20 mM EDTA in simple PBS is added into each top well, and incubated for 20 minutes at 4° C. The filter is carefully flushed with media using a gentle flow, and removed. A standard curve consisting of a two-fold dilution series of THP-1 cells (in 29 μl) is placed to accurately quantify the number of cells that have migrated. Migrated cells are stained with 3 μl of MTT stock dye solution which is added directly into each well (5 mg/ml in RPMI-1640 without phenol red) (Sigma Chemical Co., St. Louis, Mo., USA) and incubated at 37° C. for 4 hours. The media is carefully aspirated from each well, and the converted dye is solubilized by 20 μl of DMSO. Absorbance of converted dye is measured at a wavelength of 595 nm using an ELISA plate reader. The number of migrated cells in each well is then determined by interpolation of the standard curve (see also Imai et al., J. Biol. Chem., 272:15036, 1997). Any method suitable for counting cells can be used, for example, counting with a hemocytometer, incubation of the cells with MTT (see above), or FACS analysis. A negative control assay is also performed, using TGFβ or another non-chemokine chemoattractant (e.g., IL1β or TNFα). To assess whether the agent is cytotoxic, the same concentrations of agent are incubated with THP-1 cells. Agents which 1) are not cytotoxic at levels which inhibit migration, 2) are ineffective at inhibiting the negative control-induced migration, and 3) reduce or inhibit chemokine-induced THP-1 migration, are agents which fall within the scope of the invention.
For orientation: EC50 means the concentration at which the effect is half-maximal. Lower therefore signals higher potency in that assay. Consider `N[C@@H](Cc1c[nH]c2ccccc12)C(=O)NCC(=O)NC1CCC(=O)NC1=O` (stereo partly drawn) [Example 180, Trp-Gly-α-aminoglutaramide], for which the EC50 was found to be 25 nM.
`CC[C@H](C)[C@@H]1NC(=O)[C@H](Cc2c[nH]c3ccccc23)NC(=O)[C@H](CCCCN)NC(=O)CCCCNC(=O)CC[C@@H](C(N)=O)NC(=O)[C@H](CCC(N)=O)NC1=O` [Example 91, c(Apn-Lys-Trp-Ile-Gln-Glu)-NH2] ([Ava]KWIQE-NH2; lactam N-6) returned an EC50 of 9 nM.
`CC[C@H](C)[C@@H]1NC(=O)[C@H](Cc2c[nH]c3ccccc23)NC(=O)[C@H](CCCCN)NC(=O)[C@@H](NC(C)=O)CSSC[C@@H](C(N)=O)NC(=O)[C@@H](CCC(N)=O)NC1=O` [Example 75, Ac-c(Cys-Lys-Trp-Ile-D-Gln-Cys)-NH2] (Ac-CKWI[dQ]C-NH2; disulfide 1-6) displayed an EC50 of 25 nM.
Next, `CC[C@H](C)[C@@H]1NC(=O)[C@H](Cc2c[nH]c3ccccc23)NC(=O)[C@H](CCCCN)NC(=O)[C@@H](NC(C)=O)CC(=O)NC[C@@H](C(N)=O)NC(=O)[C@H](CCC(N)=O)NC1=O` [Example 110, Ac-c(Asp-Lys-Trp-Ile-Gln-Dap)-NH2] (Ac-DKWIQ[Dap]-NH2; lactam 1-6): 8 nM; `CC[C@H](C)[C@@H]1NC(=O)[C@H](Cc2c[nH]c3ccccc23)NC(=O)[C@H](CCCCN)NC(=O)[C@@H](NC(C)=O)CC(=O)NCCC[C@@H](C(N)=O)NC(=O)[C@H](CCC(N)=O)NC1=O` [Example 112, Ac-c(Asp-Lys-Trp-Ile-Gln-Orn)-NH2] (Ac-DKWIQ[Orn]-NH2; lactam 1-6): 6 nM; `CC[C@H](C)[C@@H]1NC(=O)[C@H](Cc2c[nH]c3ccccc23)NC(=O)[C@H](CCCCN)NC(=O)[C@@H](NC(=O)C(C)C)CCC(=O)NCCC[C@@H](C(N)=O)NC(=O)[C@H](CCC(N)=O)NC1=O` [Example 102, Isobutyryl-c(Glu-Lys-Trp-Ile-Gln-Orn)-NH2] (Isobutyryl-EKWIQ[Orn]-NH2; lactam 1-6): 10 nM.
With `CC[C@H](C)[C@@H]1NC(=O)[C@H](Cc2c[nH]c3ccccc23)NC(=O)[C@H](CCCCN)NC(=O)COCC(=O)NCC[C@@H](C(N)=O)NC(=O)[C@H](CCC(N)=O)NC1=O` [Example 131, c(Diglycolyl-Lys-Trp-Ile-Gln-Dab)-NH2] (KWIQ[Dab]-NH2; linker N-5 via Diglycolyl) the figure was 30 nM.
In turn, `CC[C@H](C)[C@@H]1NC(=O)[C@H](Cc2c[nH]c3ccccc23)NC(=O)[C@H](CCCCN)NC(=O)CCCNC(=O)CC[C@@H](C(N)=O)NC(=O)[C@H](CCC(N)=O)NC1=O` [Example 61, c(Gaba-Lys-Trp-Ile-Gln-Glu)-NH2] ([GABA]KWIQE-NH2; lactam N-6) displayed an EC50 of 25 nM.
Next, `CC[C@H](C)[C@@H]1NC(=O)[C@H](Cc2c[nH]c3ccccc23)NC(=O)[C@H](CCCCN)NC(=O)CCCCCCCCNC(=O)C[C@@H](C(N)=O)NC(=O)[C@H](CCC(N)=O)NC1=O` [Example 97, c(Anc-Lys-Trp-Ile-Gln-Asp)-NH2] ([NH(CH2)8CO]KWIQD-NH2; lactam N-6): 15 nM; `CC[C@H](C)[C@@H]1NC(=O)[C@H](Cc2c[nH]c3ccccc23)NC(=O)[C@H](CCCCN)NC(=O)CCCC(=O)NCCCC[C@@H](C(N)=O)NC(=O)[C@H](CCC(N)=O)NC1=O` [Example 129, c(Glutaryl-Lys-Trp-Ile-Gln-Lys)-NH2] (KWIQK-NH2; linker N-5 via Glutaryl): 400 nM.
Next, `CC[C@H](C)[C@@H]1NC(=O)[C@H](Cc2c[nH]c3ccccc23)NC(=O)[C@H](CCCCN)NC(=O)CCCCCCNC(=O)CC[C@@H](C(N)=O)NC(=O)[C@H](CCC(N)=O)NC1=O` [Example 94, c(Aha-Lys-Trp-Ile-Gln-Glu)-NH2] ([Ahp]KWIQE-NH2; lactam N-6): 10 nM; `CC[C@H](C)[C@@H]1NC(=O)[C@H](Cc2c[nH]c3ccccc23)NC(=O)[C@H](CCCCN)NC(=O)[C@@H](NC(=O)Cc2ccc(C)cc2)CSSC[C@@H](C(N)=O)NC(=O)[C@H](CCC(N)=O)NC1=O` [Example 71, p-Tolylacetyl-c(Cys-Lys-Trp-Ile-Gln-Cys)-NH2] ({Phenylacetyl(4-Me)}-CKWIQC-NH2; disulfide 1-6): 10 nM.
With `CC[C@H](C)[C@@H]1NC(=O)[C@H](Cc2c[nH]c3ccccc23)NC(=O)[C@H](CCCCN)NC(=O)CCCCCNC(=O)C[C@@H](C(N)=O)NC(=O)[C@H](CCC(N)=O)NC1=O` [Example 5, c(Ahx-Lys-Trp-Ile-Gln-Asp)-NH2] ([Ahx]KWIQD-NH2; lactam N-6) the figure was 5 nM; with `CC[C@@H](C)[C@H]1NC(=O)[C@H](Cc2c[nH]c3ccccc23)NC(=O)[C@H](CCCCN)NC(=O)[C@@H](NC(C)=O)CSSC[C@@H](C(N)=O)NC(=O)[C@H](CCC(N)=O)NC1=O` [Example 76, Ac-c(Cys-Lys-Trp-D-Ile-Gln-Cys)-NH2] (Ac-CKW[dI]QC-NH2; disulfide 1-6), 20 nM.
Molecule `CC[C@H](C)[C@@H]1NC(=O)[C@H](Cc2c[nH]c3ccccc23)NC(=O)[C@H](CCCCN)NC(=O)[C@@H](NC(=O)[C@@H](CCC(N)=O)NC(C)=O)CSSC[C@@H](C(N)=O)NC(=O)[C@H](CCC(N)=O)NC1=O` [Example 3, Ac-DGln-c(Cys-Lys-Trp-Ile-Gln-Cys)-NH2] (Ac-[dQ]CKWIQC-NH2; disulfide 2-7) yielded an EC50 of 6 nM.
With `CC[C@H](C)[C@H](NC(=O)[C@H](Cc1c[nH]c2ccccc12)NC(=O)[C@H](CCCCN)NC(=O)[C@H](CC(=O)O)NC(=O)C(C)C)C(=O)N[C@@H](CCC(N)=O)C(=O)N[C@@H](CCCCN)C(N)=O` [Example 201, Isobutyryl-Asp-Lys-Trp-Ile-Gln-Lys-NH2] (Isobutyryl-DKWIQK-NH2) the figure was 10 nM; with `CCCCCCCCCC(=O)N[C@@H](CCC(=O)NCCCC[C@H](N)C(=O)N[C@H]1CSSC[C@@H](C(N)=O)NC(=O)[C@H](CCC(N)=O)NC(=O)[C@H]([C@@H](C)CC)NC(=O)[C@H](Cc2c[nH]c3ccccc23)NC(=O)[C@H](CCCCN)NC(=O)[C@H](CCC(N)=O)NC(=O)[C@H](CCCCN)NC(=O)[C@@H]2CCCN2C(=O)[C@H](CC(=O)O)NC(=O)[C@H](CC(C)C)NC1=O)C(=O)O` [Example 173, Lys{Nε-[γ-Glu-(Nα-decanoyl)]}-c(Cys-Leu-Asp-Pro-Lys-Gln-Lys-Trp-Ile-Gln-Cys)-NH2] (H-K([γGlu-Decanoyl])CLDPKQKWIQC-NH2; disulfide 2-12), greater than 1000 nM.
With `CC[C@H](C)[C@@H]1NC(=O)[C@H](Cc2c[nH]c3ccccc23)NC(=O)[C@@H](N)CSSC[C@@H](C(N)=O)NC(=O)[C@H](CCC(N)=O)NC1=O` [Example 2, c(Cys-Trp-Ile-Gln-Cys)-NH2] (H-CWIQC-NH2; disulfide 1-5) the figure was 7 nM; with `CC[C@H](C)[C@@H]1NC(=O)[C@H](Cc2c[nH]c3ccccc23)NC(=O)[C@H](CCCCN)NC(=O)[C@@H](NC(=O)c2cccc3ccccc23)CSSC[C@@H](C(N)=O)NC(=O)[C@H](CCC(N)=O)NC1=O` [Example 68, 1-Naphthoyl-c(Cys-Lys-Trp-Ile-Gln-Cys)-NH2] (1Naphthoyl-CKWIQC-NH2; disulfide 1-6), 30 nM; with `CC[C@H](C)[C@@H]1NC(=O)[C@H](Cc2c[nH]c3ccccc23)NC(=O)[C@H](CCCCN)NC(=O)[C@@H](NC(=O)C(C)C)CCC(=O)NCCCC[C@@H](C(N)=O)NC(=O)[C@H](CCC(N)=O)NC1=O` [Example 103, Isobutyryl-c(Glu-Lys-Trp-Ile-Gln-Lys)-NH2] (Isobutyryl-EKWIQK-NH2; lactam 1-6), 8 nM.
With `CCCC(=O)N[C@H]1CSSC[C@@H](C(N)=O)NC(=O)[C@H](CCC(N)=O)NC(=O)[C@H]([C@@H](C)CC)NC(=O)[C@H](Cc2c[nH]c3ccccc23)NC(=O)[C@H](CCCCN)NC1=O` [Example 56, nButyryl-c(Cys-Lys-Trp-Ile-Gln-Cys)-NH2] (Butyryl-CKWIQC-NH2; disulfide 1-6) the figure was 25 nM.
In the case of `CC[C@H](C)[C@@H]1NC(=O)[C@H](Cc2c[nH]c3ccccc23)NC(=O)[C@H](CCCCN)NC(=O)[C@@H](NC(=O)c2cc3ccccc3[nH]2)CSSC[C@@H](C(N)=O)NC(=O)[C@H](CCC(N)=O)NC1=O` [Example 70, 2-Indolecarboxyl-c(Cys-Lys-Trp-Ile-Gln-Cys)-NH2] (X4-CKWIQC-NH2; disulfide 1-6), the EC50 amounted to 5 nM.
With `CC[C@H](C)[C@@H]1NC(=O)[C@H](Cc2c[nH]c3ccccc23)NC(=O)[C@H](CCCCN)NC(=O)CCCCCNC(=O)CC[C@@H](C(N)=O)NC(=O)[C@H](CCC(N)=O)NC1=O` [Example 92, c(Ahx-Lys-Trp-Ile-Gln-Glu)-NH2] ([Ahx]KWIQE-NH2; lactam N-6) the figure was 5 nM.

Source of the values: US20110038885A1, “CHEMOKINE ANALOGS” (priority 2007, published 2011).
